This note sets out measurements from US9868728B2, “Quinazoline derivatives, compositions, and uses related thereto” (Emory University, priority 2010, dated 2018).

The target of the assay is T1, NOX2 (Homo sapiens, UniProt P04839).
T1 construct: isolated plasma membranes from human neutrophils as a source for Nox2-p22phox; from tissue; host or cells: Plasma membranes of human neutrophils (Nox2-p22phox); cytosolic factors recombinant from E. coli
T1 sequence (P04839 2-570 limits assumed): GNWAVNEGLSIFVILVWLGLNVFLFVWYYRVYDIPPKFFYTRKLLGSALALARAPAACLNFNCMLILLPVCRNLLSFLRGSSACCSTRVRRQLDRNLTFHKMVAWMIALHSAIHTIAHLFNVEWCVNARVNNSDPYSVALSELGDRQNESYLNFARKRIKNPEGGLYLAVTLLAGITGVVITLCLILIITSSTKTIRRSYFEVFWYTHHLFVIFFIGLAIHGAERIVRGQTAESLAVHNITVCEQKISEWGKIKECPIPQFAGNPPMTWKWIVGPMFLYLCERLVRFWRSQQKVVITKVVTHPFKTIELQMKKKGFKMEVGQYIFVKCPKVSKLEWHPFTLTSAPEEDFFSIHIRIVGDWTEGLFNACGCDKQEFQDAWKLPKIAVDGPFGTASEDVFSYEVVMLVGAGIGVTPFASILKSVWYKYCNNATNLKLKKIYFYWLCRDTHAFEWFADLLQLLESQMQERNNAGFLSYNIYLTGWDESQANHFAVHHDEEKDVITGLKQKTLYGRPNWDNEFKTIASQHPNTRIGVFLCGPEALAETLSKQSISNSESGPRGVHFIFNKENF
T1 sequence (P13498 2-195 partner limits assumed): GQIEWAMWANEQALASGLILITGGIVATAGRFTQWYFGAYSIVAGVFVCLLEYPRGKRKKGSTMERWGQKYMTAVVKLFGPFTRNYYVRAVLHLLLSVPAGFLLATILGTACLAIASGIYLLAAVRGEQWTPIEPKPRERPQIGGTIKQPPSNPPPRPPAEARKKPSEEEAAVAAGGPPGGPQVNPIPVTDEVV
The assay can be described thus: Nox2 cell-free assay (LO12 luminescence). It counts as biochemical. To be noted: Nox2 cell-free system; for IC50: read-out: NOX2 IC50 (concentration giving half-maximal inhibition); for Emax: value in parentheses, read-out: % inhibition (maximum inhibition achieved at a very high concentration of the compound). The protocol:
The following compounds were tested according to the procedures provided in the experimental section. Assays were carried out using the Nox2 cell-free system. The IC50 value is the concentration giving half-maximal inhibition, while the “% inhibition” shown in parentheses is the maximum inhibition achieved at a very high concentration of the compound. 100% refers to complete inhibition within experimental error of the assay.
In certain assays a Cell-Free recombinant NOX-2 system (consisting of isolated plasma membranes from human neutrophils as a source for Nox2-p22phox, supplemented with recombinant p47phox, p67phox and Rac1Q61L (activated Rac), expressed in and isolated from of E. coli. LO12 luminescence was used as a readout to monitor enzymatic activity.
Plasma membranes were prepared from human neutrophils, which express large amounts of Nox2 and stored at −80 C until use. Membranes are mixed with recombinant, purified cytosolic regulatory proteins (p67Np47 chimera, and constitutively active Rac1 mutant Q61) and FAD, along with varying concentrations of compound, and LO12, which luminesces when it reacts with ROSvi. The reaction is started by addition of NADPH and SDS (an artificial stimulus for Nox2). See Curnutte et al., (1987) J. Biol. Chem. 262: 6450-6452.

Turning to `CN(C)c1cccc(-n2c(=S)[nH]c3ccc(Cl)cc3c2=O)c1` [TG6-285], the IC50 is 1300 nM. `CN(C)CCn1c(=S)[nH]c2ccccc2c1=O` [TG6-35-2]: the IC50 was determined as 4000 nM and the Emax stood at 50%.

`CN1CCC(n2c(=S)[nH]c3ccccc3c2=O)CC1` [TG6-33-2]: the IC50 came out at 1000 nM and the Emax stood at 40%. In the case of `CN(C)CCCn1c(SC(=O)N2CCN(C)CC2)nc2ccccc2c1=O` [TG6-71], the “NOX2 IC50 (concentration giving half-maximal inhibition)” value was “Not active”. Take `CCOc1cc2[nH]c(=S)n(N)c(=O)c2cc1OC` [AS-278]: the IC50 came out at 600 nM. Consider `CN(C)CCCn1c(SCC(=O)Nc2nc(-c3cccc(C#N)c3)cs2)nc2ccccc2c1=O` [AS188], for which the “NOX2 IC50 (concentration giving half-maximal inhibition)” value was “Not active”. On to `CN(C)CCCn1c(=S)[nH]c2c(Cl)cc(Cl)cc2c1=O` [TG6-65], for which the “NOX2 IC50 (concentration giving half-maximal inhibition)” value is reported as “Not active”. Consider `CN(C)CCCn1c(SCC(=O)Nc2cc(-c3ccc(Cl)cc3)no2)nc2ccccc2c1=O` [AS154b], for which the IC50 was determined as 8000 nM and the Emax stood at 100%. Turning to `O=C(CSc1nc2ccccc2c(=O)n1CCCN1CCOCC1)Nc1nc(-c2cccc(Br)c2)cs1` [TG6-82], the “NOX2 IC50 (concentration giving half-maximal inhibition)” value is recorded as “Not active”. Take `O=C(c1ccc(F)cc1)N1CCN(CCn2c(=S)[nH]c3ccc(Cl)cc3c2=O)CC1` [TG6-173]: the IC50 was determined as 2000 nM.

Turning to `CN(C)CCCn1c(OCC(=O)N2CCCCC2)nc2ccccc2c1=O` [TG6-74], the IC50 is more than 20000 nM. On to `O=c1c2ccccc2[nH]c(=S)n1CCN1CCCCC1` [TG6-53], for which the IC50 was found to be 1500 nM and the Emax stood at 90%. Turning to `N#CCCCCSc1nc2ccccc2c(=O)n1CCN1CCCCC1` [TG6-101], the “NOX2 IC50 (concentration giving half-maximal inhibition)” value was “Not active”. Regarding `CN1CCN(CCCn2c(=S)[nH]c3ccccc3c2=O)CC1` [TG6-55], the IC50 was determined as 3000 nM and the Emax turned out to be 60%. For `CN(C)CCCn1c(=O)[nH]c2ccccc2c1=O` [TG6-31], the “NOX2 IC50 (concentration giving half-maximal inhibition)” value is reported as “Not active”.

`CCCN(CCC)CCn1c(=S)[nH]c2ccccc2c1=O` [TG6-56]: the “NOX2 IC50 (concentration giving half-maximal inhibition)” value is “Not active”.

With `COc1ccc(N(C)CCCn2c(=S)[nH]c3ccc(F)cc3c2=O)cc1` [TG6-30], the IC50 was 100 nM and the Emax turned out to be 50%. `COc1cc2[nH]c(=S)n(O)c(=O)c2cc1OC` [AS-271]: the IC50 was 2000 nM.

`CCSc1nc2ccccc2c(=O)n1CCCN1CCOCC1` [TG6-99-1]: the “NOX2 IC50 (concentration giving half-maximal inhibition)” value is “Not active”.

In the case of `CCCn1c(=S)[nH]c2ccc(Cl)cc2c1=O` [TG6-280], the IC50 turned out to be 8000 nM. Turning to `CN(C)CCCn1c(SCC(=O)NCc2ccco2)nc2ccccc2c1=O` [TG6-23], the IC50 was more than 10000 nM. In the case of `CSc1nc2ccc(Cl)cc2c(=O)n1CCC[N+](C)(C)C` [TG6-59], the IC50 worked out at 3000 nM and the Emax worked out at 75%. For `O=c1c2ccccc2[nH]c(=S)n1CCCN1CCOCC1` [TG6-54], in that order: 2000 nM and 80%. For the molecule `COc1ccc(N2CCN(CCn3c(=S)[nH]c4cc(OC)c(OC)cc4c3=O)CC2)cc1` [TG7-29], the IC50 was 700 nM. With `CCN(CC)CCn1c(SCC(=O)Nc2nc(-c3cccc(Br)c3)cs2)nc2ccccc2c1=O` [TG6-49], the IC50 worked out at 2000 nM and the Emax turned out to be 30%. For `CCN(CC)CCCn1c(SCC(=O)Nc2nc(-c3cccc(C(F)(F)F)c3)cs2)nc2ccccc2c1=O` [AS165b], in that order: more than 10000 nM and 80%.

With `CCc1ccc(NC(=O)CSc2nc3ccccc3c(=O)n2CCCN(C)C)cc1` [TG6-43], the IC50 is more than 10000 nM and the Emax worked out at 60%.

Consider `CC(Sc1nc2ccccc2c(=O)n1CCCO)C(=O)Nc1nc(-c2ccccc2)cs1` (centres unmarked) [Sample T5826778], for which the IC50 is more than 10000 nM and the Emax is 90%.

`O=C(CSc1nc2ccccc2c(=O)n1CCN1CCCCC1)Nc1nc(-c2cccc(Br)c2)cs1` [TG6-81]: the IC50 stood at 1500 nM and the Emax was determined as 70%.

Regarding `CN(C)CCCn1c(=S)[nH]c2cc(F)c(F)cc2c1=O` [TG6-64], the IC50 stood at 1000 nM and the Emax came out at 60%. The corresponding values for `CN(C)CCCCCn1c(=S)[nH]c2ccccc2c1=O` [TG6-41] are 5000 nM and 50%. In the case of `O=c1c2cc(Cl)ccc2[nH]c(=S)n1CCCN1CCCCC1` [TG6-243], the IC50 turned out to be 600 nM.

As to `Nn1c(=S)[nH]c2cc3c(cc2c1=O)OCCO3` [AS2-014a], the IC50 was 600 nM. On the same count and under the same terms, with `COc1cc2[nH]c(=S)n(N(C)C)c(=O)c2cc1OC` [AS-268] the figure was 2500 nM.

As to `CN(C)CCCn1c(=S)[nH]c2ccc(F)cc2c1=O` [TG6-79], the IC50 turned out to be 1500 nM and the Emax was determined as 60%. On to `COc1ccc(N2CCN(CCn3c(=S)[nH]c4ccc(Cl)cc4c3=O)CC2)cc1` [TG7-20], for which the IC50 was 300 nM. On the same count and under the same terms, then `CCn1c(=S)[nH]c2ccc(F)cc2c1=O` [TG6-269-1], with 700 nM.

For the molecule `O=C(CSc1nc2ccccc2c(=O)n1CCCO)Nc1nc(-c2cc(F)ccc2F)cs1` [Sample T5837596], the IC50 was more than 10000 nM and the Emax worked out at 20%.

Regarding `COc1ccc(N(C)CCCNC(=O)c2cc(F)ccc2N)cc1` [TG6-30-2], the IC50 came out at 200 nM. Still for that read-out and setting: with `COc1cc2[nH]c(=S)n(CCCO)c(=O)c2cc1OC` [AS-270] the figure was 1000 nM.

In the case of `Cc1ccc(-c2csc(NC(=O)CSc3nc4ccccc4c(=O)n3CCCN(C)C)n2)cc1` [Sample T5306350], the IC50 is more than 10000 nM and the Emax was determined as 90%. Regarding `CN(C)CCCn1c(=S)[nH]c2cc(F)c(F)cc2c1=O` [TG6-250], the IC50 stood at 400 nM.

For `COC(=O)c1ccc2c(=O)n(N(C)C)c(=S)[nH]c2c1` [AS-266], the IC50 is 6000 nM. On to `COc1ccc(N(C)CCCn2c(=S)[nH]c3ccc(Cl)cc3c2=O)cc1` [TG7-25], for which the IC50 was found to be 200 nM. Regarding `O=c1c2cc(Cl)ccc2[nH]c(=S)n1CCN1CCCCC1` [TG6-66], the IC50 came to 1500 nM and the Emax came to 50%. As for `CN(C)CCCn1c(SCC(=O)Nc2nc(-c3ccc(Br)cc3)cs2)nc2c(c1=O)CCCC2` [AS-260], the IC50 is 17500 nM. Regarding `CN(C)CCCCn1c(SCC(=O)Nc2nc(-c3cccc(Br)c3)cs2)nc2ccccc2c1=O` [AS195], the IC50 is 3000 nM and the Emax is 100%. For the molecule `CN(C)CCCn1c(SCC(=O)Nc2cc(-c3ccc(F)cc3)n[nH]2)nc2ccccc2c1=O` [TG6-20], the IC50 came out at 4500 nM and the Emax is 90%. Take `CCCCn1c(SCC(=O)Nc2cc(-c3ccc(C)cc3)no2)nc2ccccc2c1=O` [AS153a]: the IC50 was more than 10000 nM. For `CN(C)CCCn1c(SCC(=O)Nc2nc(-c3cccc(Br)c3)cs2)nc2ccc(Cl)cc2c1=O` [TG6-58], the IC50 came to 5000 nM and the Emax came to 90%.

On to `COc1cc2[nH]c(=S)n(CCCCN)c(=O)c2cc1OC` [AS-269], for which the IC50 was found to be 1000 nM. The same measure, in the same setting: with `COc1cc2[nH]c(=S)n(N)c(=O)c2cc1OC` [AS-261A, 3-Amino-6,7-dimethoxy-2-thioxo-2,3-dihydroquinazolin-4(1H)-one] the figure was 200 nM. Take `CN(C)CCCn1c(=S)[nH]c2ccccc2c1=O` [TG6-17-2]: the IC50 is 6500 nM and the Emax was determined as 60%.

For `COc1cc2[nH]c(=S)n(C#N)c(=O)c2cc1OC` [TG6-295-2], the IC50 was determined as 200 nM. With `CC(Sc1nc2ccccc2c(=O)n1CCCN(C)C)C(=O)Nc1nc(-c2cccc(Br)c2)cs1` (centres unmarked) [TG6-73], the IC50 is more than 20000 nM and the Emax stood at 50%. Regarding `Nn1c(=S)[nH]c2cc(C(=O)O)ccc2c1=O` [AS-262], the IC50 was found to be 6000 nM. For the molecule `COc1cc2[nH]c(=S)n(CCCN(C)C)c(=O)c2cc1OC` [TG6-63], the IC50 was found to be 2000 nM and the Emax worked out at 60%.

For `Nn1c(=S)[nH]c2ccccc2c1=O` [AS-247], the IC50 is 1800 nM.
